Source: PubChem BioAssay (NCI)
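Five compound concentrations were applied to cells in 96-well plates for 48 hours; endpoints were derived by simple linear interpolation of the resulting dose-response curve. At the GI50, growth is halved. TGI: total growth inhibition.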

Assays:
Experiment in all cases: NCI-60 cell line screen, 48 h
SK-MEL-5 melanoma = tested on: SK-MEL-5 melanoma
A498 renal = tested on: A498 renal
SF-539 CNS = tested on: SF-539 CNS
K-562 leukemia = tested on: K-562 leukemia
SR leukemia = tested on: SR leukemia
UO-31 renal = tested on: UO-31 renal
U251 CNS = tested on: U251 CNS
MOLT-4 leukemia = tested on: MOLT-4 leukemia
HCT-15 colon = tested on: HCT-15 colon
SW-620 colon = tested on: SW-620 colon

Row | SMILES | GI50 (SK-MEL-5 melanoma) [µM] | TGI (SK-MEL-5 melanoma) [µM] | GI50 (A498 renal) [µM] | TGI (A498 renal) [µM] | GI50 (SF-539 CNS) [µM] | TGI (SF-539 CNS) [µM] | GI50 (K-562 leukemia) [µM] | TGI (K-562 leukemia) [µM] | GI50 (SR leukemia) [µM] | TGI (SR leukemia) [µM] | GI50 (UO-31 renal) [µM] | TGI (UO-31 renal) [µM] | GI50 (U251 CNS) [µM] | TGI (U251 CNS) [µM] | GI50 (MOLT-4 leukemia) [µM] | TGI (MOLT-4 leukemia) [µM] | GI50 (HCT-15 colon) [µM] | TGI (HCT-15 colon) [µM] | GI50 (SW-620 colon) [µM] | TGI (SW-620 colon) [µM]
1 | CNc1ccccc1C(=O)N/N=C/C=C/c1ccccc1 | 0.849 | 31.3 | 0.39 | 5.81 | 1.09 | 4.91 | 0.44 | > 100 | 0.402 | > 88.8 | 8.08 | 97.9 | 1.19 | 34.8 | 1.86 | > 100 | 0.457 | > 74.1 | 0.454 | > 100
2 | CCn1c(=O)c(-c2ccn[nH]2)cc2c(C)nc(N)nc21 | 1.38 | 6.3 | 0.209 | 0.726 | 1.77 | 10.1 | 14.7 | > 100 | 1.64 | > 100 | 0.291 | 3.72 | 3.75 | > 100 | 0.846 | 51 | 2.08 | > 100 | 2.85 | > 100
3 | C=C1C(=O)O[C@H]2[C@H]1CC/C(COC(=O)C(=O)c1c[nH]c3ccccc13)=C\CC[C@@]1(C)O[C@@H]21 | 2.06 | 4.13 | 8.56 | 20.7 | 1.75 | 3.76 | 2.28 | 9.5 | 1.55 | 14.3 | 1.84 | 3.58 | 1.86 | 3.64 | 2.2 | 7.3 | 1.75 | 4.02 | 3.09 | 16.6
4 | COc1cccc(-c2nn(-c3ccccc3)cc2-c2ccnc(NCCNS(=O)(=O)c3ccc(Cl)cc3)c2)c1 | 1.94 | 3.88 | 3.4 | > 100 | 7.35 | > 100 | 3.73 | > 100 | 2.25 | 6.59 | 2.9 | > 100 | 5.89 | > 100 | 2.56 | 9 | 3.86 | > 100 | 5.44 | > 100
5 | CC(O)C1OC(O)C2OC(C)(C)OC12 (stereo not given) |  | > 100 |  | > 100 |  | > 100 |  | > 100 |  | > 100 |  | > 100 |  | > 100 |  | > 100 |  | > 100 |  | > 100
6 | Cc1ccc(NC(c2ccccc2)c2ccc3cccnc3c2O)cc1 (stereo not given) |  | 15.4 |  | 54.8 |  | 8.18 |  | 30 |  | 14.4 |  | 16 |  | 10.9 |  | 17.3 |  | 14.4 |  | > 52.2
